Paper PMC10865806, “Structural insights into the molecular mechanism of high-level ceftazidime–avibactam resistance conferred by CMY-185” (mBio, 2024)

Experiments:
Assay type in all cases: biochemical, Escherichia coli
[1] = biological target: T1, CMY-185 (Klebsiella pneumoniae, UniProt Q48434, A134E/N366Y/Q140K/V231S); assay: Competitive inhibition of cephalothin hydrolysis and avibactam inhibition kinetics
T1 construct: all CMY-2 variant genes encoding the mature enzyme without a signal peptide were cloned into the protein expression plasmid vector pET-30b; made in house; host or cells: E. coli BL21 (DE3), pET-30b
Source text: (§1) We tested the enzymes, CMY-2, two single mutants V211S (CMY-42) and N346Y, three double mutants A114E_N346Y, Q120K_N346Y, and V211S_N346Y, and the quadruplet mutant CMY-185 to elucidate the impact on the kinetic properties resulting from the four amino acid substitutions present in CMY-185 compared with CMY-2 ([8]). The steady-state kinetic parameters kcat and Km (or Ki app) for nitrocefin, cephalothin, ceftazidime, and cefiderocol and the inhibition parameters Ki app, k2/K, k−2, and koff for avibactam are summarized in Table 1. During the hydrolysis of nitrocefin, we observed the reduction of the initial velocity at concentrations above 50 µM particularly for the CMY-2 variants harboring the N346Y substitution. As this could have represented substrate inhibition, we then determined the kinetics parameters for nitrocefin using the Haldane equation ([16]). […] In addition, during the hydrolysis of cefiderocol by CMY-185, the initial velocities at a concentration range of 3.7–59.4 µM were similar.
(§2) The steady-state kinetics were carried out on a UV-Visible spectrometer (UV-1280, Shimadzu, Japan) in PBS pH 7.2 at 25°C with a constant amount of enzyme and varying concentrations of the substrates. We tested nitrocefin, cephalothin, ceftazidime, and cefiderocol as the substrates and avibactam as the inhibitor. The steady-state kinetics parameters Km and kcat were determined with the Michaelis-Menten equation. For poorly hydrolyzed substrates, the Km value was assumed to be the competitive inhibition constant (Ki app) value according to previous studies ([17], [19]). Inhibition parameter values of Ki app, k2/K, k−2, and koff for avibactam were determined using a method as described previously ([33]). Cephalothin was used as the reporter substrate for competitive inhibition experiments, and its concentration was fixed at 100 µM. The enzyme concentration was 1–10 nM. Inverse steady-state initial velocities were plotted against the concentration of the competitive inhibitor agents, such as ceftazidime, cefiderocol, and avibactam. The data were analyzed by linear regression analysis of the Dixon plot, and Ki app (observed) was determined by dividing the y-intercept value by the slope of the line. It was then corrected to account for the affinity of cephalothin for each enzyme using the Equation (1):
(§3) (1) Ki app=Ki app (observed)/{1+[S]/Km (cephalothin)}
(§4) where [S] represents the concentration of the reporter substrate cephalothin, and Km (cephalothin) is the Km value of cephalothin for each enzyme.
(§5) The koff value was determined using a jump dilution assay. The enzyme and avibactam were mixed and preincubated at 25°C for 5 min. The concentration of avibactam depended on the enzyme and concentrations 10-fold higher from each Ki app (observed) value were adopted, which were determined based on the corrected competitive inhibition constants Ki app. Preincubated enzyme-avibactam mixture was then diluted 2,000-fold in the 100 µM cephalothin solution, and the hydrolysis of cephalothin was measured. Three independent measurements were performed for each enzyme and substrate or inhibitor combination. Curve fittings using linear or non-linear regression were performed with R 4.1.3 (R Core Team, 2022).

[2] = biological target: T2, CMY-2 (Klebsiella pneumoniae, UniProt Q48434); assay: as above; details: for Ki: reporter substrate cephalothin 100 µM, Dixon plot, read-out: Ki app
T2 construct: all CMY-2 variant genes encoding the mature enzyme without a signal peptide were cloned into the protein expression plasmid vector pET-30b; made in house; host or cells: E. coli BL21 (DE3), pET-30b
Source text: as §1, §2, §3, §4, §5

[3] = biological target: T3, CMY-2 variant A114E_N346Y (Klebsiella pneumoniae, UniProt Q48434, A134E/N366Y); assay: as above; details: for Ki: reporter substrate cephalothin 100 µM, Dixon plot, read-out: Ki app
T3 construct: all CMY-2 variant genes encoding the mature enzyme without a signal peptide were cloned into the protein expression plasmid vector pET-30b; made in house; host or cells: E. coli BL21 (DE3), pET-30b
Source text: as §1, §2, §3, §4, §5

[4] = biological target: T4, CMY-2 variant N346Y (Klebsiella pneumoniae, UniProt Q48434, N366Y); assay: as above; details: for Ki: reporter substrate cephalothin 100 µM, Dixon plot, read-out: Ki app
T4 construct: all CMY-2 variant genes encoding the mature enzyme without a signal peptide were cloned into the protein expression plasmid vector pET-30b; made in house; host or cells: E. coli BL21 (DE3), pET-30b
Source text: as §1, §2, §3, §4, §5

[5] = biological target: T5, CMY-2 variant Q120K_N346Y (Klebsiella pneumoniae, UniProt Q48434, N366Y/Q140K); assay: as above
T5 construct: all CMY-2 variant genes encoding the mature enzyme without a signal peptide were cloned into the protein expression plasmid vector pET-30b; made in house; host or cells: E. coli BL21 (DE3), pET-30b
Source text: as §1, §2, §3, §4, §5

[6] = biological target: T6, CMY-2 variant V211S_N346Y (Klebsiella pneumoniae, UniProt Q48434, N366Y/V231S); assay: as above
T6 construct: all CMY-2 variant genes encoding the mature enzyme without a signal peptide were cloned into the protein expression plasmid vector pET-30b; made in house; host or cells: E. coli BL21 (DE3), pET-30b
Source text: as §1, §2, §3, §4, §5

[7] = biological target: T7, V211S (CMY-42) (Klebsiella pneumoniae, UniProt Q48434, V231S); assay: as above
T7 construct: all CMY-2 variant genes encoding the mature enzyme without a signal peptide were cloned into the protein expression plasmid vector pET-30b; made in house; host or cells: E. coli BL21 (DE3), pET-30b
Source text: as §1, §2, §3, §4, §5

[8] = biological target: T2, CMY-2; assay: Steady-state hydrolysis kinetics
Source text: as §1
as §2, with “The enzyme concentration was 1–10 nM.” left out, “(1): […]” for “(1):”

[9] = biological target: T3, CMY-2 variant A114E_N346Y; assay: Steady-state hydrolysis kinetics; details: for Km / kcat: PBS pH 7.2, 25°C
Source text: as §1
as §2, with “The enzyme concentration was 1–10 nM.” left out, “(1): […]” for “(1):”

[10] = biological target: T4, CMY-2 variant N346Y; assay: Steady-state hydrolysis kinetics; details: for Km / kcat: PBS pH 7.2, 25°C
Source text: as §1
as §2, with “The enzyme concentration was 1–10 nM.” left out, “(1): […]” for “(1):”

[11] = biological target: T1, CMY-185; assay: Steady-state hydrolysis kinetics; details: for Km / kcat: PBS pH 7.2, 25°C
Source text: as §1
as §2, with “(1): […]” for “(1):”

[12] = biological target: T5, CMY-2 variant Q120K_N346Y; assay: Steady-state hydrolysis kinetics; details: for Km / kcat: PBS pH 7.2, 25°C
Source text: as §1
as §2, with “(1): […]” for “(1):”

[13] = biological target: T6, CMY-2 variant V211S_N346Y; assay: Steady-state hydrolysis kinetics; details: V211S_N346Y; for Km / kcat: PBS pH 7.2, 25°C
Source text: as §1
as §2, with “(1): […]” for “(1):”

[14] = biological target: T7, V211S (CMY-42); assay: Steady-state hydrolysis kinetics; details: for Km / kcat: PBS pH 7.2, 25°C
Source text: as §1
as §2, with “(1): […]” for “(1):”

[15] = tested on: CC(=O)OCC1=C(C(=O)O)N2C(=O)[C@@H](NC(=O)Cc3cccs3)[C@H]2SC1; assay: Steady-state hydrolysis kinetics; details: other: CMY-2, PBS pH 7.2, 25°C
Source text: as §1
as §2, with “The enzyme concentration was 1–10 nM.” left out, “(1): […]” for “(1):”

[16] = tested on: O=C(Cc1cccs1)N[C@@H]1C(=O)N2C(C(=O)O)=C(/C=C/c3ccc([N+](=O)[O-])cc3[N+](=O)[O-])CS[C@H]12; assay: Steady-state hydrolysis kinetics; details: other: CMY-2, PBS pH 7.2, 25°C
Source text: as §1
as §2, with “The enzyme concentration was 1–10 nM.” left out, “(1): […]” for “(1):”

[17] = reporter substrate cephalothin 100 µM, Dixon plot, read-out: Ki app
[18] = substrate 100 µM, 100–200 nM enzyme
[19] = substrate inhibition, Haldane equation

NC(=O)[C@@H]1CC[C@@H]2CN1C(=O)N2OS(=O)(=O)O [Avibactam, avibactam]
k−2 ([1]; CMY-185, decarbamoylation rate constant): 0.0007 ± 5e-05 s⁻¹
koff ([1]; CMY-185, jump dilution assay): 4.8e-07 s⁻¹
Ki ([1]; CMY-185, reporter substrate cephalothin 100 µM, Dixon plot, read-out: Ki app): 1300 µM
fold higher Ki app ([1]; CMY-185 compared to CMY-2 and V211S): 20,000 fold
k−2 ([2]; decarbamoylation rate constant): 0.00012 ± 2e-05 s⁻¹
koff ([2]; jump dilution assay): 7.3e-05 s⁻¹
Ki [2]: 0.063 µM
kinact/KI ([2]; second-order carbamoylation rate constant, read-out: k2/K): 28000 M⁻¹ s⁻¹
k−2 ([3]; decarbamoylation rate constant): 0.00011 ± 0 s⁻¹
koff ([3]; jump dilution assay): 9e-07 s⁻¹
Ki [3]: 80 ± 9 µM
fold higher Ki app ([4]; N346Y compared to CMY-2 and V211S): 1,000 fold
k−2 ([4]; N346Y, decarbamoylation rate constant): 1e-05 ± 0.00016 s⁻¹
koff ([4]; N346Y, jump dilution assay): 2.6e-06 s⁻¹
Ki ([4]; N346Y): 41 ± 6 µM
fold higher Ki app ([5]; Q120K_N346Y compared to CMY-2 and V211S): 10,000 fold
fold higher Ki app ([5]; Q120K_N346Y compared to N346Y): 10 fold
k−2 ([5]; Q120K_N346Y, decarbamoylation rate constant): 0.002 ± 0.0001 s⁻¹
koff ([5]; Q120K_N346Y, jump dilution assay): 4e-06 s⁻¹
Ki ([5]; Q120K_N346Y, reporter substrate cephalothin 100 µM, Dixon plot, read-out: Ki app): 590 µM
k−2 ([6]; decarbamoylation rate constant): 0.00044 ± 0.00021 s⁻¹
koff ([6]; jump dilution assay): 2.4e-06 s⁻¹
Ki [6, 17]: 14 ± 4 µM
k−2 ([7]; decarbamoylation rate constant): 0.00015 ± 2e-05 s⁻¹
koff ([7]; jump dilution assay): 6e-05 s⁻¹
Ki [7, 17]: 0.034 µM

CC(C)(O/N=C(\C(=O)N[C@@H]1C(=O)N2C(C(=O)[O-])=C(C[n+]3ccccc3)CS[C@H]12)c1csc(N)n1)C(=O)O [Ceftazidime, ceftazidime]
hydrolysis [8, 18]: no apparent hydrolysis
hydrolysis [9, 18]: no apparent hydrolysis
hydrolysis [10, 18]: no apparent hydrolysis
Km [11]: 2.2 ± 0.3 µM
kcat [11]: 0.1 ± 0.0 s⁻¹
Km [12]: 5.3 ± 0.5 µM
kcat [12]: 0.077 ± 0.003 s⁻¹
Km [13]: 37 ± 2 µM
kcat [13]: 0.3 ± 0.0 s⁻¹
Km [14]: 74 ± 10 µM
kcat [14]: 1.5 ± 0.2 s⁻¹
Ki [2]: 0.7 ± 0.1 µM
Ki [3]: 0.3 µM
Ki ([4]; N346Y): 0.7 ± 0.2 µM

CC(=O)OCC1=C(C(=O)O)N2C(=O)[C@@H](NC(=O)Cc3cccs3)[C@H]2SC1 [Cephalothin, cephalothin]
Km [9]: 1.4 ± 0.1 µM
kcat [9]: 3.3 ± 0.1 s⁻¹
Km [10]: 3.9 ± 0.1 µM
kcat [10]: 18 ± 7 s⁻¹
Km [11]: 19 ± 1 µM
kcat [11]: 14 ± 1 s⁻¹
Km [12]: 18 ± 3 µM
kcat [12]: 42 ± 5 s⁻¹
Km [13]: 4.4 ± 0.3 µM
kcat [13]: 9.6 ± 0.2 s⁻¹
Km [14]: 7.5 ± 1.1 µM
kcat [14]: 83 ± 7 s⁻¹

O=C(Cc1cccs1)N[C@@H]1C(=O)N2C(C(=O)O)=C(/C=C/c3ccc([N+](=O)[O-])cc3[N+](=O)[O-])CS[C@H]12 [Nitrocefin, nitrocefin]
Ki [8, 19]: 160 µM
Km [9]: 16 ± 4 µM
kcat [9]: 57 ± 10 s⁻¹
Ki [9, 19]: 68 ± 37 µM
Km [10]: 25 ± 3 µM
kcat [10]: 61 ± 5 s⁻¹
Ki [10, 19]: 87 ± 25 µM
Km [11]: 39 ± 24 µM
kcat [11]: 17 ± 9 s⁻¹
Ki [11, 19]: 18 ± 13 µM
Km [12]: 50 ± 40 µM
kcat [12]: 120 ± 90 s⁻¹
Ki [12, 19]: 14 ± 12 µM
Km [13]: 35 ± 10 µM
kcat [13]: 85 ± 18 s⁻¹
Ki [13, 19]: 100 µM
Km [14]: 29 ± 12 µM
kcat [14]: 320 ± 102 s⁻¹
Ki [14, 19]: 130 µM

CMY-2 (Klebsiella pneumoniae)
Km [15]: 4.1 ± 0.3 µM
kcat [15]: 54 ± 0.8 s⁻¹
kcat/Km [15]: 1.3e+07 ± 1e+06 M⁻¹ s⁻¹
Km [16]: 17 ± 5 µM
kcat [16]: 240 ± 50 s⁻¹
kcat/Km [16]: 1.4e+07 ± 5e+06 M⁻¹ s⁻¹
